“Also recorded” adds a separate entry of the source. Like-named read-outs stand apart in the source and are kept apart here.
How the values were obtained:
[1] = system: dimethylbenene-induced ear swelling; test: Acute ear edema of mice induced by dimethylbenene; format: in vivo; conditions: for Ear swellin: 50 μl on ear, two hours after dimethylbenene
Description: The mice were randomly divided into 5 groups. Thirty minutes and sixty minutes after applying dimethylbenene (50 μl) to the anterior and posterior surfaces of the right ear, 25% ethanol (50 μl), the linimene solutions of anemonin (0.05, 0.5, 5 mg/ml, 50 μl) and FAA (a positive control) were applied on the same ears of mice respectively. The left ear was considered as control. Two hours after dimethylbenene application, mice were killed and both ears were removed. Circular sections were taken, using a 9 mm-diameter borer, and weighed. The increase in weight caused by the irritant was measured by subtracting the weight of the untreated left ear section from that of the treated right ear section.

IL-10 = test: Cytokine production from splenocytes, Sac stimulation, IL-10 (ELISA); format: cell-based, murine; conditions: 24 h
Description: (§1) For splenocyte cytokine production assay, 5×10^6 cells per well were inoculated into a 24-well tissue culture plate with ConA (5 mg/L) or Sac (1:10000) stimulation. Different concentrations of Anemonin were added in a final volume of 2 ml. Cells were incubated at 37° C., 5% CO2 for 24 h and supernatants were harvested, IFN-γ, IL-10, IL12 (p40) and IL-2 in supernatants were measured by the sandwich enzyme-linked immunosorbent assay (ELISA) as specified by the manufacturer (BD Bioscience pharmingen, US). Concentrations of the cytokine productions were calculated based on standard curves obtained from serial dilutions of murine cytokines (r IFN-γ, rIL-10, rIL12, rIL-2). As shown in Tables C-3 and C-4, high-dose Anemonin (1-100 μg/ml) inhibited all kinds of cytokine release induced by ConA or Sac.

IFN-γ = test: Cytokine production from splenocytes, Sac stimulation, IFN-γ (ELISA); format: cell-based, murine; conditions: 24 h
Description: as §1

[2] = system: murine spleens cells stimulated with ConA; test: T-cell proliferation, spleen cells stimulated with ConA ([3H]-thymidine uptake); format: cell-based, ICR mice; conditions: for [^3H]-TDRincorparation(CPM × 10^−3): ConA 5 μg/ml, 48 hrs
Description: Fresh spleen cells were obtained from ICR mice (male, 7-9 weeks old), 5×10^5 of spleen cells were cultured in 96-well flat plates with […] of RPMI 1640 media containing 10% FBS, 100 U/ml penicillin and 100 μg/ml streptomyin in a humidified, 37° C., 5% CO2 incubator for 48 hrs. The cultures were either unstimulated, or were stimulated with 5 μg/ml of ConA or 10 μg/ml of LPS to induce T cells or B cells proliferative responses respectively. The compounds were added in cultures with indicated concentrations to test their bioactivities. Profileration was assessed in terms of uptake of [^3H]-thymidine during 6-12 hours pulsing with 20 kBq [^3H]-thymidine/well, then the cells were harvested by a Basic 96 harvester, and counted in a 1540 MicroBeta Trilux (PerkinElmer Life Sciences).

[3] = system: T-lymphocytes from the whole spleen of mice; test: ConA-induced responsive proliferation of T-lymphocytes ([3H] thymidine); format: cell-based; conditions: for Proliferation of T-lymphocytes ConA stimulation Average of CPM values: ConA at 51 μg/ml, 48 hours
Description: 5.2.1. Mice were sacrificed by removing spondyle, spleen was cut off in a sterile condition and then ground to obtain single cell suspension. After erythrocytes were got rid of the remained cells were diluted to […] with RPMI-1640 culture solution containing 10% fetal bovine serum.
5.2.2. 200 μl solution in total volume (including 100 μl the cell suspension, 50 μl sample and 50 μl ConA or LPS) was dispensed on 96-well plate.
50 μl culture solution containing 10% fetal bovine serum, instead of 50 μl sample, was added as negative control, in which the total volume was also 200 μl.
5.2.3. The cell was cultured at 37° C. and under 5% CO2 in incubator for 48 hours, and [^3H] thymidine (1.9×10^4 Bq) was added to the plate at 25 μl/well 12 hours before the end of culture.
5.2.4. The culture was continued. The plates were then stored at −20° C. in refrigeratory after the culture. The thawed cells were collected to fiberglass membrane (Nitrocellose membrane) with cell collector when detecting. After the addition of Scintillation solution, the quantity of [^3H] thymidine incorporated into DNA of cells was detected by Beta counter (MicroBeta Trilux, PerkinElmer LifeSciences). The proliferation of lymphocytes was indicated by cpm value.
Effect of the medicament on ConA-induced responsive proliferation of T-lymphocytes was examined, said T-lymphocytes were from the whole spleen of mice. ConA at 51 μg/ml final concentration was used as the stimulator to induce responsive proliferation of T-lymphocytes from the whole spleen of ICR homogenous mice (cultured in vitro for 48 hours).

With `O=C1C=CC2(CCC23C=CC(=O)O3)O1` (stereo not shown) [Anemonin, anemonin] the “Ear swellin” value ([1]; 0.05 mg/ml liniment) was 18 ± 7 mg, the “Ear swellin” value ([1]; 0.5 mg/ml liniment) was 16 ± 4 mg and the “Ear swellin” value ([1]; 5 mg/ml liniment) was 12 ± 4 mg. For the same molecule, the ear edema formation ([1]; 0.05-5 mg/ml applied) was “inhibited in a dose-dependent manner”, the “inhibitory effect on ear edema” value ([1]; doses of 2.5-25 μg/ear) was “statistically significant” and the “IL-10” value (IL-10; 0.001 μg/ml) was 1242 ± 46 pg/mL. For the same molecule, the “IL-10” value (IL-10; 0.01 μg/ml) was 1235 ± 19 pg/mL, the “IL-10” value (IL-10; 0.1 μg/ml) was 1229 ± 9 pg/mL and the “IL-10” value (IL-10; 1 μg/ml) was 749 ± 64 pg/mL. For the same molecule, the “IL-10” value (IL-10; 10 μg/ml) was 249 ± 0 pg/mL, the “IL-10” value (IL-10; 100 μg/ml) was 274 ± 18 pg/mL and the “IFN-γ” value (IFN-γ; 0.001 μg/ml) was 237 ± 3 pg/mL. The “IFN-γ” value (IFN-γ; 0.01 μg/ml) was 230 ± 23 pg/mL, the “IFN-γ” value (IFN-γ; 0.1 μg/ml) was 143 ± 0 pg/mL and the “IFN-γ” value (IFN-γ; 1 μg/ml) was 95 ± 2 pg/mL. For the same molecule, the “IFN-γ” value (IFN-γ; 10 μg/ml) was 98 ± 7 pg/mL, the “IFN-γ” value (IFN-γ; 100 μg/ml) was 89 ± 2 pg/mL and the “[^3H]-TDRincorparation(CPM × 10^−3)” value ([2]; 0.001 μg/ml) was 30.1 ± 1.31 CPM × 10^−3. For the same molecule, the “[^3H]-TDRincorparation(CPM × 10^−3)” value ([2]; 0.01 μg/ml) was 33.2 ± 2.56 CPM × 10^−3, the “[^3H]-TDRincorparation(CPM × 10^−3)” value ([2]; 0.1 μg/ml) was 30.9 ± 0.78 CPM × 10^−3 and the “[^3H]-TDRincorparation(CPM × 10^−3)” value ([2]; 1 μg/ml) was 21.7 ± 0.53 CPM × 10^−3. The “[^3H]-TDRincorparation(CPM × 10^−3)” value ([2]; 10 μg/ml) was 0.03 ± 0.01 CPM × 10^−3, the “[^3H]-TDRincorparation(CPM × 10^−3)” value ([2]; 100 μg/ml) was 0.02 ± 0.01 CPM × 10^−3 and the T-cell proliferation ([2]; 1-100 μg/ml) was “significantly inhibited”. The “Proliferation of T-lymphocytes ConA stimulation Average of CPM values” (“Proliferation … of CPM values” for short) ([3]; 0.001 μg/ml, Table B-4) was 15466 CPM, the “Proliferation … of CPM values” ([3]; 0.01 μg/ml, Table B-4) was 19386 CPM and the “Proliferation … of CPM values” ([3]; 0.1 μg/ml, Table B-4) was 15284 CPM. For the same molecule, the “Proliferation … of CPM values” ([3]; 1 μg/ml, Table B-3) was 8650 CPM, the “Proliferation … of CPM values” ([3]; 1 μg/ml, Table B-4) was 8438 CPM and the “Proliferation … of CPM values” ([3]; 10 μg/ml, Table B-3) was 171 CPM. For the same molecule, the “Proliferation … of CPM values” ([3]; 10 μg/ml, Table B-4) was 46 CPM, the “Proliferation … of CPM values” ([3]; 100 μg/ml, Table B-3) was 160 CPM and the “Proliferation … of CPM values” ([3]; 100 μg/ml, Table B-4) was 155 CPM. It also gave an inhibition at 0.001 µg/mL ([3]; Mus musculus, T-lymphocyte, 0.001 μg/ml, ConA stimulation, Table B-4, read-out: General assess of activity Enhancement/Inhibition) of 11%, an inhibition at 0.01 µg/mL ([3]; Mus musculus, T-lymphocyte, 0.01 μg/ml, ConA stimulation, Table B-4, read-out: General assess of activity Enhancement/Inhibition) of -11% and an inhibition at 0.1 µg/mL ([3]; Mus musculus, T-lymphocyte, 0.1 μg/ml, ConA stimulation, Table B-4, read-out: General assess of activity Enhancement/Inhibition) of 13%. It also gave an inhibition at 1 µg/mL ([3]; Mus musculus, T-lymphocyte, 1 μg/ml, ConA stimulation, Table B-3, read-out: General assess of activity Enhancement/Inhibition) of 47%, an inhibition at 1 µg/mL ([3]; Mus musculus, T-lymphocyte, 1 μg/ml, ConA stimulation, Table B-4, read-out: General assess of activity Enhancement/Inhibition) of 52% and an inhibition at 10 µg/mL ([3]; Mus musculus, T-lymphocyte, 10 μg/ml, ConA stimulation, Table B-3, read-out: General assess of activity Enhancement/Inhibition) of 99%. The inhibition at 10 µg/mL ([3]; Mus musculus, T-lymphocyte, 10 μg/ml, ConA stimulation, Table B-4, read-out: General assess of activity Enhancement/Inhibition) was 100%, the inhibition at 100 µg/mL ([3]; Mus musculus, T-lymphocyte, 100 μg/ml, ConA stimulation, Table B-3, read-out: General assess of activity Enhancement/Inhibition) was 99% and the inhibition at 100 µg/mL ([3]; Mus musculus, T-lymphocyte, 100 μg/ml, ConA stimulation, Table B-4, read-out: General assess of activity Enhancement/Inhibition) was 99%. For the same molecule, the “inhibition of ConA-induced responsive proliferation of lymphocytes” value ([3]; final concentration range from 0.1 μg/ml to 100 μg/ml) was “remarkably inhibited; also recorded: sharply inhibited”.

Reference: patent publication US7297353B2, “Use of anemonin for treating aseptic inflammations” (priority 2000, dated 2007)
